The values below come from PubChem BioAssay (NCI).

Each structure is given as a SMILES string.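 Step 1: Grow cells in 96-well plates. Step 2: Expose to compound for 48 hours at 5 concentrations. Step 3: Interpolate endpoints linearly; if unreached, use highest concentration. GI50 is the concentration that inhibits growth by half. TGI marks complete inhibition of growth.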 Bounds are passed on as bounds.

Some test systems named below: COLO 205 colon; HL-60(TB) leukemia; HS 578T breast; IGROV1 ovarian; MDA-MB-231 breast; NCI-H522 lung; OVCAR-3 ovarian; SK-MEL-2 melanoma; SK-MEL-5 melanoma; UO-31 renal.
Common to all, as to assay: inhibition of tumour cell growth, NCI panel, 48 h

As for `CC1=NN2CCC(=O)N=C2S1`, the TGI in the assay with COLO 205 colon, in the assay on HL-60(TB) leukemia, in the assay on HS 578T breast, in the assay on IGROV1 ovarian, in the assay on MDA-MB-231 breast and in the assay with NCI-H522 lung was over 100 µM each time. The TGI in the assay with OVCAR-3 ovarian, in the assay on SK-MEL-2 melanoma and with SK-MEL-5 melanoma was over 100 µM each time.
For the compound `OCC(S)CS.[Bi]` (stereo not given), the TGI with COLO 205 colon turned out to be 30 µM; in the assay with HL-60(TB) leukemia, 46.4 µM; in the assay with HS 578T breast, 53.5 µM; in the assay on IGROV1 ovarian it was 54.9 µM; with MDA-MB-231 breast, 43.2 µM; in the assay with NCI-H522 lung, 12.9 µM. The TGI in the assay with OVCAR-3 ovarian is 24.7 µM; in the assay on SK-MEL-2 melanoma, 30 µM; in the assay with SK-MEL-5 melanoma it was over 100 µM; in the assay on UO-31 renal, 34.1 µM.
In the case of `Cc1ccc(C(=O)N/N=C(\N=Nc2ccccc2C(=O)O)c2ccc(N(C)C)cc2)cc1`, the TGI in the assay on COLO 205 colon, with HL-60(TB) leukemia, in the assay on HS 578T breast, in the assay with IGROV1 ovarian, with MDA-MB-231 breast and with NCI-H522 lung was over 100 µM each time. Further, the TGI with OVCAR-3 ovarian is 99.3 µM; with SK-MEL-2 melanoma, over 100 µM; with SK-MEL-5 melanoma, over 100 µM; in the assay with UO-31 renal, over 100 µM.
`COc1ccc(S(=O)(=O)Nc2cc(Sc3cccc4cccnc34)c(O)c3ccccc23)cc1`: the GI50 is 1.66 µM in the assay on COLO 205 colon; 1.18 µM with HL-60(TB) leukemia; 3.09 µM in the assay on HS 578T breast; 1.09 µM in the assay with IGROV1 ovarian; 0.992 µM in the assay with MDA-MB-231 breast; 1.36 µM with NCI-H522 lung. In addition, the GI50 in the assay with OVCAR-3 ovarian is 0.695 µM; in the assay with SK-MEL-2 melanoma, 1.37 µM; in the assay on SK-MEL-5 melanoma, 1.33 µM; in the assay with UO-31 renal, 0.926 µM. Moreover, the TGI in the assay with COLO 205 colon was 4.12 µM; in the assay on HL-60(TB) leukemia, 4.94 µM; in the assay with HS 578T breast it was 28.9 µM; in the assay with IGROV1 ovarian it was 7.2 µM; in the assay on MDA-MB-231 breast, 12.5 µM; in the assay on NCI-H522 lung, 3.74 µM. Further, the TGI in the assay on OVCAR-3 ovarian turned out to be 3.81 µM; in the assay on SK-MEL-2 melanoma, 6.26 µM; with SK-MEL-5 melanoma, 2.85 µM; with UO-31 renal, 8.61 µM.
In the case of `C=C1CC(O)C2C(=C)C(=O)OC2C2C(C)C(=O)CC12` (stereo not given), the TGI in the assay on COLO 205 colon is 43.5 µM; with HL-60(TB) leukemia, 9.43 µM; in the assay on HS 578T breast, 63.2 µM; in the assay with IGROV1 ovarian, 36.2 µM; in the assay with MDA-MB-231 breast, 35.4 µM; with NCI-H522 lung it was 19.9 µM. Moreover, the TGI in the assay with OVCAR-3 ovarian was found to be 24 µM; in the assay with SK-MEL-2 melanoma, 38.2 µM; in the assay with SK-MEL-5 melanoma, 47 µM; in the assay with UO-31 renal, 28 µM.
As to `Cc1oc2nc(N(C)C)n3cnnc3c2c1C`, the TGI in the assay with COLO 205 colon, in the assay with HL-60(TB) leukemia, with HS 578T breast, in the assay with IGROV1 ovarian, in the assay on MDA-MB-231 breast and with NCI-H522 lung was over 100 µM in each case. The TGI in the assay on OVCAR-3 ovarian, in the assay with SK-MEL-2 melanoma, in the assay on SK-MEL-5 melanoma and in the assay on UO-31 renal was over 100 µM in each case.
For `N#Cc1c(N2CCCC2)nsc1Nc1ccccc1`, the TGI in the assay on COLO 205 colon, with HL-60(TB) leukemia, in the assay on HS 578T breast, in the assay on IGROV1 ovarian, with MDA-MB-231 breast and in the assay with SK-MEL-2 melanoma was over 100 µM each time. The TGI in the assay on SK-MEL-5 melanoma and in the assay on UO-31 renal was over 100 µM each time.
Turning to `NC(=S)NS(=O)(=O)c1ccc(Cl)cc1`, the TGI with COLO 205 colon, in the assay on HL-60(TB) leukemia, with HS 578T breast, with IGROV1 ovarian, in the assay with MDA-MB-231 breast and in the assay on NCI-H522 lung was over 100 µM each time. Besides, the TGI with OVCAR-3 ovarian, in the assay on SK-MEL-2 melanoma and in the assay with SK-MEL-5 melanoma was over 100 µM in each case.
Consider `Clc1ncnc2c1nc(C#Cc1ccccc1)n2C1CCCCO1` (stereo not given), for which the TGI in the assay on COLO 205 colon is 2.97 µM; in the assay with HL-60(TB) leukemia it was 6.94 µM; in the assay on HS 578T breast it was 42.6 µM; in the assay with MDA-MB-231 breast it was 12.7 µM; in the assay with NCI-H522 lung, 3.65 µM; with OVCAR-3 ovarian, 2.92 µM. Also, the results for the TGI in the assay with SK-MEL-2 melanoma, in the assay with SK-MEL-5 melanoma and in the assay on UO-31 renal were 6.49 µM, 5.06 µM and 3.38 µM, respectively.
Regarding `COc1cc(-c2nc(SC)nc3c2CCc2ccccc2-3)cc(OC)c1OC`, the TGI with COLO 205 colon, in the assay with HL-60(TB) leukemia, with HS 578T breast, in the assay on IGROV1 ovarian, in the assay on MDA-MB-231 breast and with OVCAR-3 ovarian was over 100 µM each time. Moreover, the TGI in the assay on SK-MEL-2 melanoma, with SK-MEL-5 melanoma and in the assay on UO-31 renal was over 100 µM in each case.
On to `COC(=O)C(CNC(=O)/C=C/c1ccc(OC(C)=O)c(OC(C)=O)c1)NC(=O)/C=C/c1ccc(OC(C)=O)c(OC(C)=O)c1` (stereo not given), for which the TGI in the assay on COLO 205 colon, with HS 578T breast, with IGROV1 ovarian, in the assay with MDA-MB-231 breast, in the assay with NCI-H522 lung and in the assay with OVCAR-3 ovarian was over 100 µM in each case. Moreover, the TGI in the assay with SK-MEL-2 melanoma, with SK-MEL-5 melanoma and with UO-31 renal was over 100 µM in each case.
As to `NNS(=O)(=O)c1ccc(/C=C2\NC(=O)NC2=O)cc1`, the TGI with COLO 205 colon, with HL-60(TB) leukemia, with HS 578T breast, with IGROV1 ovarian, with MDA-MB-231 breast and with OVCAR-3 ovarian was over 100 µM in each case. Also, the TGI in the assay with SK-MEL-2 melanoma, with SK-MEL-5 melanoma and in the assay with UO-31 renal was over 100 µM in each case.
As to `COc1ccc(C2NC(N)=C(C#N)C3=C2C(C)CCC3)cc1OC` (stereo not given), the TGI in the assay with COLO 205 colon, in the assay on HL-60(TB) leukemia, with HS 578T breast, with IGROV1 ovarian, in the assay with MDA-MB-231 breast and in the assay with OVCAR-3 ovarian was over 100 µM in each case. Further, the TGI in the assay on SK-MEL-2 melanoma, in the assay with SK-MEL-5 melanoma and in the assay with UO-31 renal was over 100 µM in each case.
For `CSc1c(C)n([O-])c2cc(Cl)c(Cl)cc2[n+]1=O`, the TGI was 41.7 µM in the assay with COLO 205 colon; over 68.5 µM in the assay on HS 578T breast; 30.8 µM with IGROV1 ovarian; 37.9 µM with MDA-MB-231 breast; 29.3 µM in the assay with NCI-H522 lung; 33.1 µM in the assay with OVCAR-3 ovarian. In addition, the values for the TGI in the assay on SK-MEL-2 melanoma, with SK-MEL-5 melanoma and in the assay on UO-31 renal were 46 µM, 34.3 µM and 30.4 µM, respectively.
